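Cultured in 96-well plates, cells were exposed to test compound for 48 hours across five concentrations. At the GI50, growth is halved. The concentration for full growth arrest is given as TGI.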
Columns and labels:
Test in all cases: NCI-60 cell line screen, 48 h
NCI-H522 lung = tested on: NCI-H522 lung
SK-MEL-28 melanoma = tested on: SK-MEL-28 melanoma
SF-268 CNS = tested on: SF-268 CNS
MOLT-4 leukemia = tested on: MOLT-4 leukemia
NCI-H460 lung = tested on: NCI-H460 lung
RXF 393 renal = tested on: RXF 393 renal
OVCAR-4 ovarian = tested on: OVCAR-4 ovarian
NCI/ADR-RES ovarian = tested on: NCI/ADR-RES ovarian
COLO 205 colon = tested on: COLO 205 colon
LOX IMVI melanoma = tested on: LOX IMVI melanoma

Structure (SMILES) | TGI (NCI-H522 lung) [µM] | TGI (SK-MEL-28 melanoma) [µM] | TGI (SF-268 CNS) [µM] | TGI (MOLT-4 leukemia) [µM] | TGI (NCI-H460 lung) [µM] | TGI (RXF 393 renal) [µM] | TGI (OVCAR-4 ovarian) [µM] | TGI (NCI/ADR-RES ovarian) [µM] | TGI (COLO 205 colon) [µM] | TGI (LOX IMVI melanoma) [µM] | GI50 (NCI-H522 lung) [µM] | GI50 (SK-MEL-28 melanoma) [µM] | GI50 (SF-268 CNS) [µM] | GI50 (MOLT-4 leukemia) [µM] | GI50 (NCI-H460 lung) [µM] | GI50 (RXF 393 renal) [µM] | GI50 (OVCAR-4 ovarian) [µM] | GI50 (NCI/ADR-RES ovarian) [µM] | GI50 (COLO 205 colon) [µM] | GI50 (LOX IMVI melanoma) [µM]
Cc1cc(C(O)CNC(C)CCn2cnc3c2c(=O)n(C)c(=O)n3C)ccc1O (stereo unspecified) | > 100 | > 100 | > 100 | > 100 | > 100 | > 100 | > 100 | > 100 | > 100 | > 100 |  |  |  |  |  |  |  |  |  | 
Cc1ccc(S(=O)(=O)Nc2cc(Sc3ccccc3)c(O)c3ccccc23)cc1 | 27.6 | 15 | 8.07 | 5.62 | 34.5 | 9.38 | 2.95 | 9.31 | 42.4 | 7.96 | 13.1 | 4.4 | 2.57 | 1.96 | 17.6 | 3.11 | 1.59 | 3 | 19.5 | 2.34
O=c1c(Sc2ncccn2)c(Sc2ncccn2)cnn1CCl | 2.37 | 12.7 | 9.57 | 10.6 | 32.9 | 3.46 | 6.14 | 24.4 | 4.79 | 5.28 |  |  |  |  |  |  |  |  |  | 
O=C(Nc1ccc(S(=O)(=O)Nc2ncccn2)cc1)c1c2ccccc2nc2ccccc12 | > 100 | > 100 | > 100 | > 100 | > 100 |  | > 100 | > 100 | > 100 | > 100 |  |  |  |  |  |  |  |  |  | 
CCCOP(=S)(N1CC1)N1CC1 | > 100 | > 100 | > 100 | > 100 | > 100 | > 100 | > 100 |  | > 100 | > 100 |  |  |  |  |  |  |  |  |  | 
COc1ccc(/C=C(\Cl)c2ccc(OC)cc2)cc1 | > 100 | > 100 | > 100 | > 100 | > 100 |  | > 100 |  | > 100 | > 100 |  |  |  |  |  |  |  |  |  | 
Cc1ncc(CO)c(C=NCCCCCCN=Cc2c(CO)cnc(C)c2O)c1O | > 100 | > 100 | > 100 | > 100 | > 100 | > 100 | > 100 | > 100 | > 100 | > 100 |  |  |  |  |  |  |  |  |  | 
Cc1cn2c(/C=C3/C(=O)Nc4ccccc43)c(C)nc2s1 | 21.5 | > 100 | 78.1 | 15.2 | 16.1 | > 100 |  | > 100 | 15.6 | 70.4 |  |  |  |  |  |  |  |  |  | 
Cc1ccc(-n2cc(-c3ccc(Cl)cc3)c3c2N=CN2NC(c4cccs4)=NC32)cc1 (stereo unspecified) | > 100 | > 100 | 69.5 |  | 19.2 | 31.4 | 6.17 | 40.9 | 28.7 | > 100 |  |  |  |  |  |  |  |  |  | 
CC#Cc1c(C#CC)c(OC)c2c(c1OC)C(=O)c1ccccc1C2=O | 42.5 | > 100 | 78.6 | > 100 | > 100 | 55.1 | > 100 |  | > 100 | > 100 |  |  |  |  |  |  |  |  |  | 
CC1=C(C(=O)NC(C)(C)C)CC(C(=O)NC(C)(C)C)C(C)N1 (stereo unspecified) | > 100 |  | > 100 | > 100 | > 100 | > 100 | > 100 | > 100 | > 100 | > 100 |  |  |  |  |  |  |  |  |  | 
CN(C)C(=O)Oc1ccc(C(=S)Nc2ccccc2)cc1Br | 52.4 | > 100 | 23.5 | 38.1 | > 100 |  | > 100 | 63.9 | 55.3 | 45.8 |  |  |  |  |  |  |  |  |  | 
CSc1nc(-c2ccc(Cl)cc2)c(C#N)c(=O)[nH]1 | > 100 | > 100 | > 100 | > 100 | > 100 | > 100 | > 100 | > 100 | > 100 |  |  |  |  |  |  |  |  |  |  | 
COC(=O)C1(C)OC(C)=NC1(C(=O)OC)C(=O)OC (stereo unspecified) |  | > 100 | > 100 | > 100 | > 100 | > 100 | > 100 | > 100 | > 100 | > 100 |  |  |  |  |  |  |  |  |  | 
CCOC(=O)c1c(NC(=O)c2ccc(Br)cc2)sc2c1CCCC2 |  | > 100 | > 100 | > 100 | 20 | > 100 |  |  | > 100 |  |  |  |  |  |  |  |  |  |  | 
C#CC(O)Cc1ccc(OC)c2occc12 (stereo unspecified) | > 100 |  | > 100 |  | > 100 | > 100 | > 100 | > 100 | > 100 | > 100 |  |  |  |  |  |  |  |  |  | 
CCc1n[nH]c(=S)n1/N=C\c1ccc(-c2ccccc2[N+](=O)[O-])o1 | > 100 |  | > 100 | 57.8 |  | > 100 | > 100 | 81.5 | > 100 | > 100 |  |  |  |  |  |  |  |  |  | 
CC/C=C/C(/C=C/C[C@]1(CC)C[C@H](CC)[C@H](CC(=O)O)OO1)CC (stereo partly specified) | 3.44 | 7.41 | 9.57 |  | 4.25 | 6.3 | 3 | 4.79 | 3.86 | 1.76 |  |  |  |  |  |  |  |  |  | 
CC(=O)C1=NN(c2ccccc2)C2(S1)SC(c1ccccc1)(c1ccccc1)c1ccccc12 (stereo unspecified) | 80.1 | > 100 | > 100 | > 100 | > 100 | 65.7 | 79.6 |  | > 100 | > 100 |  |  |  |  |  |  |  |  |  | 
Cc1cc(-c2ccc(C(=O)C(c3ccccc3)(c3ccccc3)c3ccccc3)[nH]2)on1 |  | 52.9 | 68.7 | 84.9 | 21.6 | 9.46 | 88.1 | 36.8 | 42.2 | 53.3 |  |  |  |  |  |  |  |  |  | 
Cc1ccc(Nc2cn(COCc3ccccc3)c(=O)[nH]c2=O)cc1 |  | > 100 | > 100 | > 100 | > 100 | > 100 | > 100 | > 100 | > 100 | > 100 |  |  |  |  |  |  |  |  |  | 
Nc1cc(N)c(N=Nc2cccc3c(S(=O)(=O)O)cccc23)cc1N=Nc1cc([N+](=O)[O-])ccc1O | 61.4 |  | 54.8 | > 100 | 74.1 | > 100 | > 100 | 93.2 | > 100 | 37.1 |  |  |  |  |  |  |  |  |  | 

Source: PubChem BioAssay (NCI)
